Columns and labels:
K. pneumoniae = test: Susceptibility testing, MIC by Etest; format: cell-based, Klebsiella pneumoniae
Method: (§1) Susceptibility testing was performed by determining MIC values using the Etest® (AB bioMérieux; Solna, Sweden) on Mueller-Hinton agar plates at 37° C. and results were recorded according to US guidelines (CLSI), as updated in 2012 (2). The breakpoints for cefotaxime are susceptible (S)≤1 and resistant (R)≥4 μg/ml, and for ceftazidime S≤4 and R≥16 μg/ml.

M. morganii = test: ESBL NDP test using spiked blood cultures; format: biochemical, Morganella morganii; set-up: key: (+) and (−) referred to color change being, red to yellow or unchanged, respectively; (+) and (−) referred to color change being, red to yellow or unchanged, respectively
Method: (§2) Strains were isolated on Mueller-Hinton agar (Biorad, Marnes-la-Coquette, France) and incubated at 37° C. for 16 h to 24 h before performing the NDP rapid ESBL test as follows. One calibrated inoculated loop (10 μl) of the tested strain was resuspended in 150 μl of 20 mM Tris-HCl lysis buffer previously distributed in Microbead tubes (Ultraclean Microbial DNA isolation kit Bead Tubes, MO BIO Laboratories, Carlsbad, USA). Mechanical lysis of bacteria was performed by strong agitation of Microbead tubes using a vortex adapter (MO BIO Laboratories) for 30 min at room temperature. This bacterial suspension was centrifuged at 10,000×g at room temperature for 5 min. Thirty μl of the supernatant was mixed in a well of a 96-well tray with 100 μl of a 1 ml solution made of 3 mg of purified cefotaxime sodium salt (Sigma-Aldrich, Saint-Quentin-Fallavier, France) in a pH 7.8 phenol red solution. […]. […] Similarly, culture extracts were analyzed in wells containing cefotaxime and tazobactam (4 mg/ml). […]
(§3) Rapid detection of ESBL producers was attempted from spiked blood cultures which positivity was assessed using the BactAlert blood culture system (bioMérieux). […] Spiked blood cultures were made of 1×10^3 CFU of each strain and incubated 24 to 48 h before a positivity of the blood culture was detected by the BactAlert system. […]

P. mirabilis = test: ESBL NDP test using spiked blood cultures; format: biochemical, Proteus mirabilis; set-up: key: (+) and (−) referred to color change being, red to yellow or unchanged, respectively; (+) and (−) referred to color change being, red to yellow or unchanged, respectively
Method: Strains were isolated on Mueller-Hinton agar (Biorad, Marnes-la-Coquette, France) and incubated at 37° C. for 16 h to 24 h before performing the NDP rapid ESBL test as follows. One calibrated inoculated loop (10 μl) of the tested strain was resuspended in 150 μl of 20 mM Tris-HCl lysis buffer previously distributed in Microbead tubes (Ultraclean Microbial DNA isolation kit Bead Tubes, MO BIO Laboratories, Carlsbad, USA). Mechanical lysis of bacteria was performed by strong agitation of Microbead tubes using a vortex adapter (MO BIO Laboratories) for 30 min at room temperature. This bacterial suspension was centrifuged at 10,000×g at room temperature for 5 min. Thirty μl of the supernatant was mixed in a well of a 96-well tray with 100 μl of a 1 ml solution made of 3 mg of purified cefotaxime sodium salt (Sigma-Aldrich, Saint-Quentin-Fallavier, France) in a pH 7.8 phenol red solution. […]. The phenol red solution was made by taking 2 ml of a concentrated pH 8 phenol solution (made from a mixture of phenol red 0.5% in distilled water) to which 16.6 ml of distilled water was added. The pH value was then adjusted to a 7.8 value by adding drops of a 1 N NaOH solution. Mixture of the phenol red solution and the enzymatic suspension being tested was incubated at 37° C. for 30 min. Similarly, culture extracts were analyzed in wells containing cefotaxime and tazobactam (4 mg/ml). Other concentrations of tazobactam and other ß-lactamase inhibitors were tested giving less clear results (data not shown). […] This definition of test positivity will be applied throughout the study.
as §3, with “(bioMérieux). […] This inoculum was reached after 24-48 h incubation in this BactAlert system. Strains were inoculated into blood culture system in presence of 10 ml of sterile blood.” for “(bioMérieux).”

CTX-M producers = test: Susceptibility testing, MIC by Etest; format: cell-based, Enterobacteriaceae; settings: all CTX-M producers (n=147)
Method: as §1

C. brakii = test: Susceptibility testing, MIC by Etest; format: cell-based; settings: C. brakii Wild-type, chromosome-encoded cephalosporinase, n=1
Method: as §1

S. ficaria [1] = test: Susceptibility testing, MIC by Etest; format: cell-based; settings: S. ficaria Wild-type, chromosome-encoded cephalosporinase, n=1
Method: as §1

E. sakazakii = test: Susceptibility testing, MIC by Etest; format: cell-based; settings: overexpressed chromosome-encoded cephalosporinase, n=1
Method: as §1

C. freundii = test: ESBL NDP test using spiked blood cultures; format: biochemical, Citrobacter freundii; set-up: key: (+) and (−) referred to color change being, red to yellow or unchanged, respectively; (+) and (−) referred to color change being, red to yellow or unchanged, respectively; settings: C. freundii BG 1106 7767, Wild-type
Method: as §2, §3

S. ficaria [2] = test: ESBL NDP test using spiked blood cultures; format: biochemical; set-up: key: (+) and (−) referred to color change being, red to yellow or unchanged, respectively; (+) and (−) referred to color change being, red to yellow or unchanged, respectively; settings: S. ficaria CIP 104255, Wild-type
Method: as §2, §3

S. thyphimurium = test: ESBL NDP test using spiked blood cultures; format: biochemical; set-up: key: (+) and (−) referred to color change being, red to yellow or unchanged, respectively; (+) and (−) referred to color change being, red to yellow or unchanged, respectively; settings: S. thyphimurium 10.81, CTX-M-1
Method: as §2, §3

Q: For `CO/N=C(\C(=O)N[C@@H]1C(=O)N2C(C(=O)O)=C(COC(C)=O)CS[C@H]12)c1csc(N)n1` [CTX, cefotaxime], which MICs range (K. pneumoniae; K. pneumoniae CTX-M-3, n=1) is on record?
A: >16 µg/mL

Q: And the MICs range (K. pneumoniae; K. pneumoniae CTX-M-14, n=3)?
A: >16 µg/mL

Q: And the MICs range (K. pneumoniae; K. pneumoniae CTX-M-15, n=28)?
A: >16 µg/mL

Q: And the MICs range (K. pneumoniae; K. pneumoniae DHA-1, n=1)?
A: >16 µg/mL

Q: What about the MICs range (K. pneumoniae; K. pneumoniae DHA-2, n=1) of the same compound?
A: >16 µg/mL

Q: What about the MICs range (K. pneumoniae; K. pneumoniae GES-1, n=1) of the same compound?
A: 0.5 µg/mL

Q: And the MICs range (K. pneumoniae; K. pneumoniae SHV-2a, n=2)?
A: 1 µg/mL

Q: What about the MICs range (K. pneumoniae; K. pneumoniae SHV-5, n=2) of the same compound?
A: >16 µg/mL

Q: What about the MICs range (K. pneumoniae; K. pneumoniae SHV-12, n=1) of the same compound?
A: 1 µg/mL

Q: And the MICs range (K. pneumoniae; K. pneumoniae SHV-12, n=2)?
A: 2 to 8 µg/mL

Q: And the MICs range (K. pneumoniae; K. pneumoniae SHV-28, n=3)?
A: >16 µg/mL

Q: What about the MICs range (K. pneumoniae; K. pneumoniae TEM-52, n=2) of the same compound?
A: >16 µg/mL

Q: And the MICs range (K. pneumoniae; K. pneumoniae Wild-type penicillinase, n=2)?
A: 0.02 to 0.03 µg/mL

Q: And the “ESBL NDP Test from: Blood culture” value (M. morganii; M. morganii BG 1106 5902, Wild-type)?
A: −

Q: What about the “ESBL NDP Test from: Blood culture” value (M. morganii; M. morganii BG 1117 0617, Wild-type) of the same compound?
A: −

Q: What about the “ESBL NDP Test from: Blood culture” value (P. mirabilis; P. mirabilis 09.128, TEM-52) of the same compound?
A: +

Q: And the “ESBL NDP Test from: Blood culture” value (P. mirabilis; P. mirabilis 09.177, TEM-21)?
A: +

Q: And the “ESBL NDP Test from: Blood culture” value (P. mirabilis; P. mirabilis BIK, ACC-1)?
A: −

Q: What about the MIC (CTX-M producers) of the same compound?
A: > 8 mg/L

Q: What about the MICs range (C. brakii) of the same compound?
A: 0.12 µg/mL

Q: What about the MICs range (S. ficaria [1]) of the same compound?
A: 0.12 µg/mL

Q: What about the MICs range (E. sakazakii) of the same compound?
A: >16 µg/mL

Q: And the “ESBL NDP Test from: Blood culture” value (C. freundii)?
A: −

Q: What about the “ESBL NDP Test from: Blood culture” value (S. ficaria [2]) of the same compound?
A: −

Q: What about the “ESBL NDP Test from: Blood culture” value (S. thyphimurium) of the same compound?
A: +
